Consider nine compounds from patent US7700352B2, “Composition for culturing mouse pluripotent stem cells” (Riken, priority 2002, dated 2010).

Test [1] has as its system feeder cell-independent ES cells (E14tg2a, CGR8). The test is described as follows: Formation of colonies of undifferentiated ES cells in medium free of serum and feeder cells (GMEM + LIF + 2-ME + KSR), Leischman staining. In kind it is cell-based, mouse. The note with it: for relative potency of the colony-forming capability: comparison among candidate peptides / ACTH fragments; for capability to form a colony of undifferentiated cells: peptide at 1 μM in medium with LIF + 2-ME + KSR. How it is done:
One hundred of the feeder cell-independent ES cells (E14tg2a (Hooper, M. et al., Nature, 325, 292 (1987)), CGR8 (Mountford, P. et al., Proc. Natl. Acad. Sci. USA, 91, 4303 (1994)), and ES cells derived therefrom) were incubated on the gelatinated 12-well plate treated with a 0.1% (w/v) gelatin solution at 37° C. in 5% CO2 in one ml of a culture medium of Glasgow minimum essential medium (GMEM; Sigma) used as a cell culture minimum medium supplemented with (1) 1×10^3 U/ml LIF (ESGRO, Invitrogen), (3) 0.1 μM 2-mercaptoethanol (Nacalai Tesque), and (5) 10% (v/v) KSR (Invitrogen) per well.
Five days or more after the incubation, the supernatant was removed by aspiration, and then a Leischman staining liquid (1.5 g Leischman Staining: Sigma/L methanol) was added to the plate until the liquid covered all of the surface of the plate. The plate was left at room temperature for 10 minutes, and rinsed with water (Leischman staining). For the blue-stained colonies, no formation of colonies that maintained their morphology in an undifferentiated state was shown by the naked eye and light microscopy (FIG. 1 (g)). When the ES cells were incubated in a culture medium wherein the medium described above was supplemented with 0.3% (v/v) FCS (2), an average of 17 colonies of undifferentiated cells was observed (FIG. 1 (d)). […] Further, a formation of colonies of undifferentiated cells was observed when the ES cells were incubated at 1000 or more per well in the culture medium having the same composition ((1)+(3)+(5)). When the conditioned medium (CM) was added to a culture medium at a final concentration of 10% (v/v), and 100 ES cells per well were incubated therein, then an average of 7 colonies of undifferentiated cells was observed (FIG. 1 (f)).
Subsequently, a candidate peptide that had been selected from diverse known growth factors, cytokines, peptide hormones and the like, was added to the culture medium comprising (1)+(3)+(5), and the ES cells were incubated therein at 37° C. in 5% CO2 so that a capability of the candidate to form a colony of undifferentiated cells was determined. […] It should be noted that FIG. 1 (a) to (c) show the results obtained from the medium consisting of GMEM, LIF and 2-ME, supplemented with FCS+feeder cells, KSR+feeder cells, and FCS, respectively.
In a similar manner to the above, ACTH and the fragments thereof were added to the culture medium at a final concentration of 1 μM wherein (1) LIF, (3) 2-ME, and (5) KSR were supplemented to a cell culture minimum medium.
ACHT has been known to activate an ACTH receptor belonging to G-protein-coupled receptor families, which receptor activates an adenylate cyclase activity through the activation of trimeric G proteins containing the Gα s subunit. Now, to a cell culture minimum medium supplemented with (1) 1×10^3 U/ml LIF, (3) 0.1 μM 2-ME, (5) 10% (v/v) KSR, and (6) 10 μM ACTH, an inhibitor of an adenylate cyclase activity, SQ22536 (9-(tetrahydro-2-furanyl)adenine) (Sigma) at 100 μM, was further added, and the resultant medium was used to culture the ES cells in a similar manner to that of Example 1.
In order to check the effect of sole SQ22536, a cell culture minimum medium supplemented with (1) 1×10^3 U/ml LIF, (3) 0.1 μM 2-ME, (5) 10% (v/v) KSR, and (7) SQ22536 100 μM was used to culture the ES cells in a similar manner to that of Example 1. As a result, an average of nine colonies of undifferentiated cells was observed. Further, even when the medium added with another inhibitor of an adenylate cyclase activity, 2′,5′-dideoxyadenosine (Sigma) 500 μM, was used, an average of eight colonies of undifferentiated cells was observed. […]

Test [2] has as its system inner cell masses of C57BL/6 blastocysts. The test is described as follows: Establishment of ES cell lines from inner cell masses of blastocysts in serum-free, feeder-free medium. In kind it is cell-based, mouse. Conditions: 10 μM ACTH, LIF, 2-ME, KSR, fibronectin-coated plate; thirty C57BL/6 embryos. How it is done: Thirty embryos at blastocyst stage of 3.5 days old were removed from C57BL/6 inbred mouse strains, and the inner cell masses isolated from the embryos by immunosurgery were individually incubated in the culture medium consisting of CCMM, (1) 1×10^3 U/ml LIF, (3) 0.1 μM 2-ME, 0.1 mM non-essential amino acids, 1 mM sodium pyruvate, (5) 10% (v/v) KSR, and (6) 10 μM ACTH on a plate coated with fibronectin.

The subject of test [3] is ES cells injected into the mouse blastocyst. The test is described as follows: Chimeric mouse production from ES cells injected into the mouse blastocyst (retention of pluripotency). In kind it is in vivo. The note with it: ES cells cultured with 1 nM adrenocorticotropic hormone. How it is done:
The undifferentiated ES cells derived from the colonies obtained by the culture with 1 nM adrenocorticotropic hormone in Example 1 as described above were further subcultured twice, and the resultant cells were injected into the mouse blastocyst to complete the transplantation into the pseudopregnant mouse uterus.

[4] abbreviates: SQ22536 100 μM added to medium with 10 μM ACTH, 7th day.
The mark [5] stands for this setting: 10 μM ACTH (1-24), compared with 0.3% FCS or 10% CM.
The mark [6] stands for this setting: pertussis toxin 100 ng/ml added to medium with 10 μM ACTH.

No end group written: not given here.

For `C[C@H]1O[C@@H](n2cnc3c(N)ncnc32)C[C@@H]1O` [2′,5′-dideoxyadenosine], the “average number of colonies of undifferentiated cells” value in test [1] (2′,5′-dideoxyadenosine 500 μM in LIF + 2-ME + KSR medium) was “eight”.

For the compound `Nc1ncnc2c1ncn2C1CCCO1` (stereo not drawn) [SQ22536, 9-(tetrahydro-2-furanyl)adenine], in test [1] (setting [4]), the “formation of colonies of undifferentiated cells” value was “no formation of colonies of undifferentiated cells was unexpectedly inhibited” and the “size of individual colonies” value is on record as “significantly increased”. Further, in test [1] (SQ22536 100 μM alone (no ACTH) in LIF + 2-ME + KSR medium), the “average number of colonies of undifferentiated cells” value was “nine”.

Turning to “ACTH (1-24): fragment of ACTH, amino acids from the N-terminus 1 to 24”, in test [1] (setting [5]), the cell proliferation rate result is listed as “equivalent to that in the case of 0.3% FCS or 10% CM” and the “formation rate of undifferentiated cell colonies” value is “equivalent to that in the case of 0.3% FCS or 10% CM”. In test [1], the “relative potency of the colony-forming capability” value is reported as “most potent capability among the fragments having a capability” and the “capability to form a colony of undifferentiated cells” value was “showed to have the capability”. The “formation of the colony of undifferentiated cells” value in test [1] (final concentration of 0.1 μM) is reported as “showed the formation of the colony of undifferentiated cells”.

As for “ACTH (11-24): fragment of ACTH, amino acids 11 to 24 (KPVGKKRRPVKVYP; Corticotropin; UniProt P01189 148-161, looked up, fragment)”, in test [1], the “capability to form a colony of undifferentiated cells” value is recorded as “showed to have the capability”.

In the case of “ACTH (18-39): fragment of ACTH, amino acids 18 to 39 (RPVKVYPNGAEDESAEAFPLEF; Corticotropin; UniProt P01189 155-176, looked up, fragment)”, in test [1], the “capability to form a colony of undifferentiated cells” value is listed as “showed to have no capability”.

For the compound “adrenocorticotropic hormone (SYSMEHFRWGKPVGKKRRPVKVYPNGAEDESAEAFPLEF; Corticotropin; UniProt P01189 138-176, looked up) [ACTH, peptide hormone composed of 39 amino acid residues (ACTH (1-39))]”, the “relative potency of the colony-forming capability” value in test [1] is “the capability at the lowest concentration among the candidate peptides”. For the same compound, the “capability to form a colony of undifferentiated cells” value in test [1] (listed as ACTH (1-39)) is “showed to have the capability”. The “capability to form a colony of undifferentiated cells” value in test [1] (listed as adrenocorticotropic hormone) is on record as “formation of colonies of undifferentiated ES cells having the apparent morphology was observed”. Also, the “inner cells that initiated proliferation and finally established ES cell lines” value in test [2] is on record as “at least two”. Moreover, in test [3], the “chimeric mice with an ES cell contribution ratio of 70% or more (hair color)” value is on record as 17 litters, the “contribution of the ES cells to the germ cell line (inbreeding)” value is listed as “the inbreeding showed the contribution of the ES cells to the germ cell line”, the “female litters among the 17 chimeric litters” value came out at 14 litters and the “litters survived three weeks or more after birth” value is 30 litters. In test [3] (subcultured twice, injected into blastocyst), the “litters produced from 100 transplanted embryos” value came out at 33 litters.

brain natriuretic peptide: the “capability to form a colony of undifferentiated cells” value in test [1] is “formation of colonies of undifferentiated ES cells having the apparent morphology was observed”.

Take pertussis toxin: in test [1] (setting [6]), the “effect of ACTH on colony formation” value is “the effect of ACTH was inhibited” and the “size of the colonies of undifferentiated cells” value is reported as “drastically decreased”.

Consider “pituitary adenylate cyclase activating polypeptide (HSDGIFTDSYSRYRKQMAVKKYLAAVLGKRYKQRVKNK; ends and bridges not checked; UniProt P18509 132-169, looked up)”, for which the “capability to form a colony of undifferentiated cells” value in test [1] is given as “formation of colonies of undifferentiated ES cells having the apparent morphology was observed”.
